According to US20220073554A1, “LINCOSAMIDE ANTIBIOTICS AND USES THEREOF” (President and Fellows of Harvard College, priority 2017, published 2022):
≈ marks a conversion by molar mass, not a printed value. Like-named read-outs stand apart in the source and are kept apart here.

Columns and labels:
Format in all cases: cell-based
P. aeruginosa ATCC 27853 = assay: MIC against P. aeruginosa ATCC 27853; conditions: Pseudomonas aeruginosa, ATCC27853
E. coli MMX 0121 ΔTolC = assay: MIC against E. coli MMX 0121 ΔTolC; conditions: Escherichia coli
S. aureus MMX 3035 cErmA = assay: MIC against S. aureus MMX 3035 cErmA; conditions: Staphylococcus aureus, MMX3035CERMA
[1] = tested on: S. aureus Micromyx USA 300; assay: MIC against S. aureus Micromyx USA 300; conditions: Staphylococcus aureus, USA300
[2] = tested on: E. coli MMX TolC parent strain; assay: MIC against E. coli MMX TolC parent strain; conditions: Escherichia coli
B. fragilis ATCC 25285 = assay: MIC against B. fragilis ATCC 25285; conditions: Bacteroides fragilis, ATCC25285
S. pyogenes ATCC 19615 = assay: MIC against S. pyogenes ATCC 19615; conditions: Streptococcus pyogenes, ATCC19615
S. aureus ATCC 29213 = assay: MIC against S. aureus ATCC 29213; conditions: Staphylococcus aureus
[3] = tested on: S. pneumoniae MMX 3028 cErmB; assay: MIC against S. pneumoniae MMX 3028 cErmB; conditions: Streptococcus pneumoniae, MMX3028CERMB
C. difficile BAA 1805 = assay: MIC against C. difficile BAA 1805; conditions: Clostridioides difficile, BAA1805
S. aureus BAA 977 iErmA = assay: MIC against S. aureus BAA 977 iErmA; conditions: Staphylococcus aureus, BAA977
E. coli ATCC 15922 = assay: MIC against E. coli ATCC 15922; conditions: Escherichia coli, ATCC15922
[4] = tested on: P. aeruginosa MMX 3476 Δmex; assay: MIC against P. aeruginosa MMX 3476 Δmex; conditions: Pseudomonas aeruginosa
[5] = tested on: E. faecalis MMX 847 Macrolide-Resistant; assay: MIC against E. faecalis MMX 847 Macrolide-Resistant; conditions: Enterococcus faecalis
S. pneumoniae ATCC 49619 = assay: MIC against S. pneumoniae ATCC 49619; conditions: Streptococcus pneumoniae, ATCC49619; S. pneumoniae ATCC 49619; read-out: MIC
[6] = tested on: S. pneumoniae MMX 3031 cMefA; assay: MIC against S. pneumoniae MMX 3031 cMefA; conditions: Streptococcus pneumoniae, MMX3031CMEFA
[7] = tested on: P. aeruginosa MMX Mex parent strain; assay: MIC against P. aeruginosa MMX Mex parent strain; conditions: Pseudomonas aeruginosa
[8] = tested on: S. pyogenes MMX 946 Macrolide-Resistant; assay: MIC against S. pyogenes MMX 946 Macrolide-Resistant; conditions: Streptococcus pyogenes
[9] = tested on: S. aureus MP-513 clinical cErm; assay: MIC against S. aureus MP-513 clinical cErm; conditions: Staphylococcus aureus
E. coli ATCC 25922 = assay: MIC against E. coli ATCC 25922; conditions: Escherichia coli, ATCC25922
E. faecalis ATCC 29212 = assay: MIC against E. faecalis ATCC 29212; conditions: Enterococcus faecalis, ATCC29212
H. influenzae ATCC 49247 = assay: MIC against H. influenzae ATCC 49247; conditions: Haemophilus influenzae, ATCC49247
E. coli MP-9 ΔTolC = assay: MIC against E. coli MP-9 ΔTolC; conditions: Escherichia coli
[10] = tested on: S. aureus UNT-146, MP-620, TP 506 (ermA); assay: microbe, parasite or virus in culture; conditions: Staphylococcus aureus
[11] = tested on: S. aureus UNT96, NRS710, MP-618 (USA100, Erythro > 8); assay: microbe, parasite or virus in culture; conditions: Staphylococcus aureus
E. faecalis UNT-047 VRE = assay: microbe, parasite or virus in culture; conditions: Enterococcus faecalis
[12] = tested on: S. aureus UNT-120, MP-619, NR522 (USA 600, GISA); assay: microbe, parasite or virus in culture; conditions: Staphylococcus aureus, USA600
[13] = tested on: S. aureus MP-549 msr(a) USA 300; assay: MIC against S. aureus MP-549 msr(a) USA 300; conditions: Staphylococcus aureus, USA300, S. aureus MP-549 msr(a) USA 300
K. pneumoniae ATCC 10031 = assay: MIC against K. pneumoniae ATCC 10031; conditions: Klebsiella pneumoniae, ATCC10031
[14] = tested on: S. pyogenes UNT-014, MP-625 MacRes; assay: MIC against S. pyogenes UNT-014, MP-625 MacRes; conditions: Streptococcus pyogenes
[15] = tested on: S. pneumoniae UNT-039, MP-627, TP1517 (mefA); assay: MIC against S. pneumoniae UNT-039, MP-627, TP1517 (mefA); conditions: Streptococcus pneumoniae
[16] = S. pyogenes ATCC 19615, read-out: MIC

Row | Compound | MIC (P. aeruginosa ATCC 27853) | MIC (E. coli MMX 0121 ΔTolC) | MIC (S. aureus MMX 3035 cErmA) | MIC [2] | MIC (B. fragilis ATCC 25285) | MIC (S. pyogenes ATCC 19615; [16]) | MIC (S. aureus BAA 977 iErmA) | MIC [4] | MIC [5] | MIC (S. pneumoniae ATCC 49619) | MIC [7] | MIC [9] | MIC (E. coli ATCC 25922) | MIC (E. faecalis ATCC 29212) | MIC [1] | MIC (S. aureus ATCC 29213; ATCC29213) | MIC [3] | MIC (H. influenzae ATCC 49247) | MIC [8] | MIC (E. coli MP-9 ΔTolC) | further results
1 | CSC1O[C@H]([C@H](NC(=O)[C@H]2NC[C@@H]3CC=CCO[C@H]32)[C@H](C)Sc2ccc(-c3cncnc3)cc2)C(O)[C@@H](O)[C@H]1O (stereo partly drawn) [FSA-27049] | > 64 µg/mL | 8 µg/mL (≈ 13.6 µM) | > 64 µg/mL | > 64 µg/mL | > 64 µg/mL | ≤ 0.06 µg/mL | 2 µg/mL (≈ 3.4 µM) | > 64 µg/mL | > 64 µg/mL | ≤ 0.06 µg/mL | > 64 µg/mL | > 64 µg/mL |  |  |  |  |  |  |  |  | MIC ([1]; S. aureus Micromyx USA 300, read-out: MIC): 1 µg/mL (≈ 1.7 µM); MIC (S. aureus ATCC 29213; ATCC29213, S. aureus ATCC 29213, read-out: MIC): 1 µg/mL (≈ 1.7 µM); MIC ([3]; S. pneumoniae MMX 3028 cErmB, read-out: MIC): 39 µg/mL (≈ 66.2 µM); MIC (C. difficile BAA 1805; C. difficile BAA 1805, read-out: MIC): 1 µg/mL (≈ 1.7 µM); MIC (E. coli ATCC 15922): > 64 µg/mL; MIC [6]: ≤ 0.06 µg/mL; MIC ([8]; S. pyogenes MMX 946 Macrolide-Resistant (MacRes), read-out: MIC): 2 µg/mL (≈ 3.4 µM)
2 | Cc1ccc(S(=O)(=O)OCC2O[C@H]([C@H](NC(=O)[C@H]3NC[C@@H]4CC=CCO[C@H]43)[C@@H](C)O)C(O)[C@@H](O)[C@H]2O)cc1 (stereo partly drawn) [FSA-211030] | > 64 µg/mL | > 64 µg/mL | > 64 µg/mL | > 64 µg/mL | > 64 µg/mL | 1 µg/mL (≈ 1.8 µM) | > 64 µg/mL | > 64 µg/mL | > 64 µg/mL |  | > 64 µg/mL |  | > 64 µg/mL | > 64 µg/mL | > 64 µg/mL | > 64 µg/mL | > 64 µg/mL | > 64 µg/mL | > 64 µg/mL |  | MIC (C. difficile BAA 1805): > 64 µg/mL
3 | C[C@@H](O)[C@@H](NC(=O)[C@H]1NC[C@@H]2CC=CCO[C@H]21)[C@H]1OC(CN=[N+]=[N-])[C@H](O)[C@H](O)C1O (stereo partly drawn) [FSA-211064] | > 64 µg/mL | > 64 µg/mL | > 64 µg/mL | > 64 µg/mL | > 64 µg/mL | 4 µg/mL (≈ 9.36 µM) | > 64 µg/mL | > 64 µg/mL | > 64 µg/mL |  | > 64 µg/mL |  | > 64 µg/mL | > 64 µg/mL | > 64 µg/mL | > 64 µg/mL | > 64 µg/mL | > 64 µg/mL | > 64 µg/mL |  | 
4 | CSC1O[C@H]([C@H](NC(=O)[C@H]2NC[C@@H]3C[C@@H](O)[C@@H](O)CO[C@H]32)[C@H](C)Cl)C(O)[C@@H](O)[C@H]1O (stereo partly drawn) [FSA-501076] | > 64 µg/mL |  |  |  |  |  | > 64 µg/mL |  |  |  |  | > 64 µg/mL | > 64 µg/mL | > 64 µg/mL |  | > 64 µg/mL |  |  |  | > 64 µg/mL | MIC (S. pyogenes ATCC 19615): > 64 µg/mL; MIC [10]: > 64 µg/mL; MIC [11]: > 64 µg/mL; MIC (E. faecalis UNT-047 VRE): > 64 µg/mL; MIC [12]: > 64 µg/mL; MIC [13]: > 64 µg/mL; MIC (K. pneumoniae ATCC 10031): > 64 µg/mL
5 | CSC1O[C@H]([C@H](NC(=O)[C@H]2NC[C@@H]3C[C@H]4OC(C)(C)O[C@H]4CO[C@H]32)[C@H](C)Cl)C(O)[C@@H](O)[C@H]1O (stereo partly drawn) [FSA-501099] | > 64 µg/mL |  |  |  |  |  | > 64 µg/mL |  |  | 8 µg/mL (≈ 15.7 µM) |  | > 64 µg/mL | > 64 µg/mL | > 64 µg/mL |  | > 64 µg/mL |  |  |  | > 64 µg/mL | MIC [14]: 32 µg/mL (≈ 62.6 µM); MIC [10]: > 64 µg/mL; MIC [11]: > 64 µg/mL; MIC [15]: 2 µg/mL (≈ 3.91 µM); MIC (E. faecalis UNT-047 VRE): > 64 µg/mL; MIC [12]: > 64 µg/mL; MIC [13]: > 64 µg/mL; MIC (K. pneumoniae ATCC 10031): > 64 µg/mL
